Measured values as given in patent US9751854B2 (Millennium Pharmaceuticals, Inc., priority 2014, dated 2017).

Target: human VPS34 (Homo sapiens (Human), UniProt Q8NEB9)
Assay: Human VPS34 enzyme assay (Adapta TR-FRET ADP detection)
Type: biochemical
Conditions: IC50 range class

Chain of human VPS34 (Q8NEB9 whole entry): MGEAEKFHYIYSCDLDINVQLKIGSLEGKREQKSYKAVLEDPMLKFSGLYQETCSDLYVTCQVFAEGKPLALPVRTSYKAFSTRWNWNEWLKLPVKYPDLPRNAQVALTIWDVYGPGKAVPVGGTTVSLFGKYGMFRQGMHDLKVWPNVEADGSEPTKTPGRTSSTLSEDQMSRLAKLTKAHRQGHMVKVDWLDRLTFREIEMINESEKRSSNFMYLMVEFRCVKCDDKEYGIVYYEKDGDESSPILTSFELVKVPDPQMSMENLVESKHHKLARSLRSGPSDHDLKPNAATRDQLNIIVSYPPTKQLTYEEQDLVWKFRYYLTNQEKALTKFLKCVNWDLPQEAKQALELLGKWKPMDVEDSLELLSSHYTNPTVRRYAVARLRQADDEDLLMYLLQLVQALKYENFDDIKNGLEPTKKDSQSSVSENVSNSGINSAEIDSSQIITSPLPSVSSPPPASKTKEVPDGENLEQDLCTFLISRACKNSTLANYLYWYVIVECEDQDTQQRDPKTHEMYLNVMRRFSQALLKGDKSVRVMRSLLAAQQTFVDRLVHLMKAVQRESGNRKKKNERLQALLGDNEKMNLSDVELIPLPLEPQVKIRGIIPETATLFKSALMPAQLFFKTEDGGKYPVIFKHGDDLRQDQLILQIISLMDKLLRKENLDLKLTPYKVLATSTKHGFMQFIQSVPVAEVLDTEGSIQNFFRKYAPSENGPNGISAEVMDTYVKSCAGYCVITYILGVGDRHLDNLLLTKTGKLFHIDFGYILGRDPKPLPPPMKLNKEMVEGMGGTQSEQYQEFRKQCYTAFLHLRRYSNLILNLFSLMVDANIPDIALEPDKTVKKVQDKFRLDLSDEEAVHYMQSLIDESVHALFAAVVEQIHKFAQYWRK

SMILES | IC50 [µM]
CC(=O)Nc1cc(-c2cncc(C(=O)N(C)C)c2)ccn1 [Compound I-48, 2′-acetamido-N,N-dimethyl-3,4′-bipyridine-5-carboxamide] | > 0.1
CC(=O)Nc1cc(-c2cncc(C(=O)C3CC3)c2)ccn1 [Compound I-8, N-[5-(cyclopropylcarbonyl)-3,4′-bipyridin-2′-yl]acetamide] | > 0.1
Cc1nccc(Nc2cc(-c3cnc(O)c(S(=O)(=O)NC4CCC4)c3)ccn2)n1 [Compound I-279, N-cyclobutyl-6-hydroxy-2′-[(2-methylpyrimidin-4-yl)amino]3,4′-bipyridine-5-sulfonamide] | 0.01 to 0.05
Cc1nccc(Nc2cc(-c3cnc(C)c(C(=O)N(C)c4ccc(F)cc4F)c3)ccn2)n1 [Compound I-346, N-(2,4-difluorophenyl)-N,6-dimethyl-2′-[(2-methylpyrimidin-4-yl)amino]-3,4′-bipyridine-5-carboxamide] | 0.01 to 0.05
Cc1nccc(Nc2cc(-c3cnc(C)c(Oc4ccccc4)c3)ccn2)n1 [Compound I-475, 6-methyl-N-(2-methylpyrimidin-4-yl)-5-phenoxy-3,4′-bipyridin-2′-amine] | 0.01 to 0.05
CC(=O)Nc1cc(-c2cnc(N)c(S(N)(=O)=O)c2)ccn1 [Compound I-61, N-(6-amino-5-sulfamoyl-3,4′-bipyridin-2′-yl)acetamide] | 0.01 to 0.05
CC(=O)Nc1cc(-c2cnc(C)c(N(CC3CC3)S(=O)(=O)C3CC3)c2)ccn1 [Compound I-83, N-{5-[(cyclopropylmethyl)(cyclopropylsulfonyl)amino]-6-methyl-3,4′-bipyridin-2′-yl}acetamide] | > 0.1

Now from value to compound:

IC50 [µM] | SMILES
< 0.01 | CC(=O)Nc1cc(-c2cnc(Cl)c(N3CCCN(C)S3(=O)=O)c2)ccn1 [Compound I-467, N-[6-chloro-5-(6-methyl-1,1-dioxido-1,2,6-thiadiazinan-2-yl)-3,4′-bipyridin-2′-yl)acetamide]
0.01 to 0.05 | COC(=O)Nc1cc(-c2cnc(C)c(N3CCCS3(=O)=O)c2)ccn1 [Compound I-146, methyl [5-(1,1-dioxidoisothiazolidin-2-yl)-6-methyl-3,4′-bipyridin-2′-yl]carbamate]
< 0.01 | CC(=O)Nc1cc(-c2cnc(C)c(NS(=O)(=O)c3cc(C)ccc3F)c2)ccn1 [Compound I-28, N-(5-{[(2-fluoro-5-methylphenyl)sulfonyl]amino}-6-methyl-3,4′-bipyridin-2′-yl)acetamide]
0.01 to 0.05 | COc1ncc(-c2ccnc(NC(C)=O)c2)cc1S(=O)(=O)Nc1cc(Cl)ccc1Cl [Compound I-432, N-{5-[(2,5-dichlorophenyl)sulfamoyl]-6-methoxy-3,4′-bipyridin-2′-yl}acetamide]
< 0.01 | CC(=O)Nc1cc(-c2cnc(C)c(NS(=O)(=O)c3ccccc3)c2)ccn1 [Compound I-84, N-{6-methyl-5-[(phenylsulfonyl)amino]-3,4′-bipyridin-2′-yl}acetamide]
< 0.01 | CC(=O)Nc1cc(-c2cnc(C)c(NS(=O)(=O)c3ccsc3)c2)ccn1 [Compound I-203, N-{6-methyl-5-[(3-thienylsulfonyl)amino]-3,4′-bipyridin-2′-yl}acetamide]
< 0.01 | CC(=O)Nc1cc(-c2cnc(C)c(NS(=O)(=O)c3ccccc3C(F)(F)F)c2)ccn1 [Compound I-62, N-[6-methyl-5-({[2-(trifluoromethyl)phenyl]sulfonyl}amino)-3,4′-bipyridin-2′-yl]acetamide]
0.01 to 0.05 | Cc1nccc(Nc2cc(-c3cnc(Cl)c(C(=O)N4CCC4)c3C)ccn2)n1 [Compound I-457, axetidin-1-yl{6-chloro-4-methyl-2′-[(2-methylpyrimidin-4-yl)amino]-3,4′-bipyridine-5-yl)methanone]
< 0.01 | CC(=O)Nc1cc(-c2cncc(NS(=O)(=O)c3ccc(F)cc3F)c2)ccn1 [Compound I-12, N-(5-{[(2,4-difluorophenyl)sulfonyl]amino}-3,4′-bipyridin-2′-yl)acetamide]
